The values below come from patent US8129427B2, “2-phenylethylamino derivatives as calcium and/or sodium channel modulators” (Newron Pharmaceuticals S.p.A., priority 2005, dated 2012).

Experiment [1] addresses recombinant human N-type channels, h α1B (hCav2.2)+β1b+α2δ-1 subunits (Homo sapiens, UniProt Q00975). Description: Patch clamp studies of calcium currents inhibition in HEK293 cells. Type of experiment: cell-based. The conditions noted are these: tonic block, preconditioning −50/−55 mV (half maximal steady-state inactivated condition); read-out: IC50 (Vhalf). As to the method: Functional inhibition of the N-type Ca currents was studied using whole cell patch clamp methods (Hamill O. P., Marty A., Neher E., Sakmann B., Sigworth F. J. Pflugers Arch. (1981) 391: 85-100) on HEK293 cells expressing recombinant human N-type channels, obtained after transient transfection of h α1B (hCav2.2)+β1b+α2δ-1 subunits.
Membrane currents were recorded and filtered at 5 kHz with an Axon Axopatch 200B amplifier and digitized with an Axon Digidata 1322A (Axon Instruments, CA, USA). Voltage clamping of membrane potentials and data acquisition were controlled online with Axon pClamp8 software. Measuring and reference electrodes were AgCl—Ag electrodes. Cells had initial seal resistances of >1 GΩ and access resistances of 4.2±0.2 MΩ. Cells were continuously superfused with extracellular solutions using a Biologic RSC-200.
For calcium currents recording the control bath solution contained (mM): Choline chloride (70), MgCl2 (1), BaCl2 (20), TEA.Cl (50), Hepes (10), Glucose (10). Internal pipette solution consisted of (mM): CsCl (140), EGTA (10), MgCl2 (2), Hepes (10), MgATP (1), GTP Tris (0.3).
(§1) Compounds were dissolved as 20 mM stock solutions in DMSO and then diluted to the final concentration in the external solutions.
A two-step protocol was used to determine the voltage dependence of the block:
N-type current was activated by a 600 ms step pulse to +10 mV (test pulse) from a 5000 ms preconditioning potential of −110 mV (resting condition) or −50/−55 mV (half maximal steady-state inactivated condition), respectively.
The amplitude of calcium current peaks evoked by the respective test pulses at a frequency of 0.06 Hz were measured before and after exposure to the test substance. Tonic block of currents was calculated as the difference between the peak calcium current measured at the end of a stabilization period in the control external bath solution and peak currents measured at the end of test substance perfusion period (when steady state is reached) divided by control peaks. […]

Experiment [2] concerns the target T1, MAO-B (Rattus norvegicus, UniProt P19643).
T1 construct: from tissue; host or cells: rat brain crude mitochondrial fraction
T1 sequence (P19643 1-520): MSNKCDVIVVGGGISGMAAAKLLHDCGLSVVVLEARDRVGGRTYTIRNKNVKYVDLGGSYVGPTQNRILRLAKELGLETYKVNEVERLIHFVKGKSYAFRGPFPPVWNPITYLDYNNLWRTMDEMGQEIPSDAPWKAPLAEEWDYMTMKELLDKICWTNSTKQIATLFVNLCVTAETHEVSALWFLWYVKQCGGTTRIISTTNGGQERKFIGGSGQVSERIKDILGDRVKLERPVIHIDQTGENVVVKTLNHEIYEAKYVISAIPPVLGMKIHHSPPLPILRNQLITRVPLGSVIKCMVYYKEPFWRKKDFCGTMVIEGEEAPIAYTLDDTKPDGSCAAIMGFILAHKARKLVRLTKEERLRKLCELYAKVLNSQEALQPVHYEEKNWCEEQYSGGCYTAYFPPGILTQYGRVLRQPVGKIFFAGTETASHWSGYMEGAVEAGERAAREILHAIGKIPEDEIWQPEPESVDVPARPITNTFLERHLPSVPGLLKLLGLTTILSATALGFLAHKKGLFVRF
Nature of the experiment: In vitro MAO-B enzyme activity radioenzymatic assay. The format is biochemical. The conditions noted are these: 100 μM compound, rat brain crude mitochondrial fraction, 14C-PEA substrate. Here is the method:
Male Wistar rats (Harlan, Italy—175-200 g) were sacrificed under light anaesthesia and brains were rapidly removed and homogenized in 8 volumes of ice-cold 0.32 M sucrose buffer containing 0.1 M EDTA, pH 7.4. The crude homogenate was centrifuged at 2220 rpm for 10 minutes and the supernatant recovered. The pellet was homogenized and centrifuged again. The two supernatants were pooled and centrifuged at 9250 rpm for 10 minutes at +4° C. The pellet was resuspended in fresh buffer and centrifuged at 11250 rpm for 10 minutes at +4° C. The resulting pellet was stored at −80° C.
The enzyme activities were assessed with a radioenzymatic assay using the substrates ^14C-serotonin (5-HT) and ^14C-phenylethylamine (PEA) for MAO-A and MAO-B, respectively.
The mitochondrial pellet (500 μg protein) was resuspended in 0.1 M phosphate buffer (pH 7.4). 500 μl of the suspension were added to a 50 μl solution of the test compound or buffer, and incubated for 30 min at 37° C. (preincubation) then the substrate (50 μl) was added. The incubation was carried out for 30 minutes at 37° C. (^14C-5-HT, 5 μM) or for 10 minutes at 37° C. (^14C-PEA, 0.5 μM).
The reaction was stopped by adding 0.2 ml of 37% HCl or perchloric acid. After centrifugation, the deaminated metabolites were extracted with 3 ml of diethyl ether (5-HT) or toluene (PEA) and the radioactive organic phase was measured by liquid scintillation spectrometry at 90% efficiency. The amount of neutral and/or acidic metabolites formed as a result of MAO activity was obtained by measuring the radioactivity of the eluate.
The activity of MAO in the sample, corresponding to a percentage of radioactivity compared with the control activity in the absence of the inhibitor, was expressed as nmoles of substrate transformed/mg protein/min.

Experiment [3] relates to maximal electroshock seizures in mice. Nature of the experiment: Maximal electroshock test (MES) in mice. Type of experiment: in vivo, mouse. The conditions noted are these: i.v., 5 minutes before testing. From the text:
Animals and Apparatus: Male CDl mice weighing 25 g were used. The procedure described by White et al. (White H. S., Woodhead J. H., Franklin […]., and Wolf H. H. Antiepileptic Drugs (1995) 4th ed: 99-110, Raven Press, Ltd., New York) was followed. An Ugo Basile electroconvulsive generator (Model ECT UNIT 7801) was used to deliver an electrical stimulus sufficient to produce a hindlimb tonic extensor response in at least 97% of control animals. The stimulus was delivered intra-aurally through clip electrodes in mice (0.7 s of a 40 mA shock, with a pulse train of 80 Hz having a pulse duration of 0.4 ms). […] Ten mice were studied per group. Complete suppression of the hindlimb tonic extensor component of seizures was taken as evidence of anticonvulsant activity.
Background: In the maximal electroshock model the usual endpoint is tonic extension of the hind limbs.

Experiment [4] addresses N-type calcium channels (Homo sapiens, UniProt Q00975). Nature of the experiment: N-type calcium channel influx assay (fluorescence). The format is cell-based. The settings on record: differentiated IMR32 cells, nifedipine 1 μM, 100 mM KCl depolarization; read-out: IC50.
Experiment [5] has as its system L-type calcium channels. The format is cell-based, mouse. The settings on record: AtT20/D16v-F2 cells, ω-conotoxin 1 μM, 100 mM KCl depolarization.
Experiment [6] concerns TTXs sodium channels. Nature of the experiment: TTXs-sodium channel influx assay (membrane potential fluorescence). The format is cell-based, rat. The settings on record: ND7/23 cells, veratridine 100 μM. As to the method: ND7/23 rat dorsal root ganglion-derived cell line endogenously expresses a mixed population of TTXs sodium channels (such as Nav1.3, Nav1.2, Nav1.1, Nav1.6). These cells lack of TTXr sodium channels as shown by the absence of their respective transcripts. ND7/23 cells were grown in DMEM supplemented with 10% FBS and 1 mM sodium piruvate.
The cells were seeded at 50,000 cells/well on 96 poly-L-lysine-coated plates and further incubated for 18-24 h before use.
The Membrane Potential Kit Assay (Molecular Devices), based on a negatively charged fluorescent dye able to monitor changes in membrane potential caused by the sodium influx due to the channel opening, was used for the assay.
Cells were incubated with the dye loading for 30 minutes at 25° C. Then, 100 nM of the toxin Anemonia sulcata (used as enhancer of the channel opener response) alone or in the presence of TTX (as reference standard) or test compound were added for further 15 minutes.
The fluorescence (excitation: 530 nm, emission: 565 nm wavelength) was measured before and after (40-45 s) the automated injection of the sodium channel opener veratridine (100 μM) using a Victor plate reader (Perkin Elmer).
The inhibition curves were calculated from 5 concentrations, each in triplicate, and the IC50 determined using a linear regression analysis.

In experiment [7] the target is T2, recombinant Nav 1.3 channels (Homo sapiens, UniProt Q9NY46).
T2 construct: expressed in transfected cells; host or cells: HEK293 cells
Description: Patch clamp studies of sodium currents inhibition in HEK293 cells. The settings on record: tonic block, preconditioning −50 mV (half maximal steady-state inactivated condition); read-out: IC50 (Vhalf). Type of experiment: cell-based. As to the method:
Cells and methods: Functional inhibition of the sodium currents was studied using whole cell patch clamp methods (Hamill O. P., Marty A., Neher E., Sakmann B., Sigworth F. J., Pflugers Arch. (1981) 391 (2): 85-100) on HEK293 cells expressing recombinant Nav 1.3 channels. Membrane currents were recorded as described in the example above.
For sodium current recording control bath solution contained (mM): NaCl (80), Choline chloride (38), CaCl2 (1.3), MgCl2 (2), KCl (2), CdCl2 (0.4), NiCl2 (0.3), TEA.Cl (20), Hepes (10), Glucose (10). Internal pipette solution consisted of (mM): EGTA (10), NaCl (10), CaCl2 (1.3), MgCl2 (2), Hepes (10), CsF (130), MgATP (1).
as §1
Voltage protocols and data analyses: A two-step protocol was used to determine the voltage dependence of the block:
sodium current was activated by a 30 ms step pulse to 10 mV (test pulse) from a 2000 ms preconditioning potential of −100 mV (resting condition) or −50 mV (half maximal steady-state inactivated condition), respectively.
The amplitude of sodium current peaks evoked by the respective test pulses at a frequency of 0.06 Hz were measured before and after exposure to the test substance. Tonic block of currents was calculated as the difference between the Nacurrent peak measured at the end of a stabilization period in the control external bath solution and the current peak measured at the end of test substance perfusion period (when steady state is reached) divided by control peaks. Drug concentration-inhibition curves were obtained by plotting tonic blocks versus drug concentrations. Dose-response curves were fitted to the tonic block data, according to the logistic equation: y=A2+(A1−A2)/[1+(x/IC50)^p]. A1 and A2 are fixed values of 0 and 1 corresponding to 0 and 100% current inhibition, x is the drug concentration, IC50 is the drug concentration resulting in 50% current inhibition and p is the corresponding slope factor.
(In patch-clamp work, channel activity is measured electrically.)

Counter-ions that a name gives are not always drawn.

Chain of recombinant human N-type channels, h α1B (hCav2.2)+β1b+α2δ-1 subunits (Q00975 whole entry): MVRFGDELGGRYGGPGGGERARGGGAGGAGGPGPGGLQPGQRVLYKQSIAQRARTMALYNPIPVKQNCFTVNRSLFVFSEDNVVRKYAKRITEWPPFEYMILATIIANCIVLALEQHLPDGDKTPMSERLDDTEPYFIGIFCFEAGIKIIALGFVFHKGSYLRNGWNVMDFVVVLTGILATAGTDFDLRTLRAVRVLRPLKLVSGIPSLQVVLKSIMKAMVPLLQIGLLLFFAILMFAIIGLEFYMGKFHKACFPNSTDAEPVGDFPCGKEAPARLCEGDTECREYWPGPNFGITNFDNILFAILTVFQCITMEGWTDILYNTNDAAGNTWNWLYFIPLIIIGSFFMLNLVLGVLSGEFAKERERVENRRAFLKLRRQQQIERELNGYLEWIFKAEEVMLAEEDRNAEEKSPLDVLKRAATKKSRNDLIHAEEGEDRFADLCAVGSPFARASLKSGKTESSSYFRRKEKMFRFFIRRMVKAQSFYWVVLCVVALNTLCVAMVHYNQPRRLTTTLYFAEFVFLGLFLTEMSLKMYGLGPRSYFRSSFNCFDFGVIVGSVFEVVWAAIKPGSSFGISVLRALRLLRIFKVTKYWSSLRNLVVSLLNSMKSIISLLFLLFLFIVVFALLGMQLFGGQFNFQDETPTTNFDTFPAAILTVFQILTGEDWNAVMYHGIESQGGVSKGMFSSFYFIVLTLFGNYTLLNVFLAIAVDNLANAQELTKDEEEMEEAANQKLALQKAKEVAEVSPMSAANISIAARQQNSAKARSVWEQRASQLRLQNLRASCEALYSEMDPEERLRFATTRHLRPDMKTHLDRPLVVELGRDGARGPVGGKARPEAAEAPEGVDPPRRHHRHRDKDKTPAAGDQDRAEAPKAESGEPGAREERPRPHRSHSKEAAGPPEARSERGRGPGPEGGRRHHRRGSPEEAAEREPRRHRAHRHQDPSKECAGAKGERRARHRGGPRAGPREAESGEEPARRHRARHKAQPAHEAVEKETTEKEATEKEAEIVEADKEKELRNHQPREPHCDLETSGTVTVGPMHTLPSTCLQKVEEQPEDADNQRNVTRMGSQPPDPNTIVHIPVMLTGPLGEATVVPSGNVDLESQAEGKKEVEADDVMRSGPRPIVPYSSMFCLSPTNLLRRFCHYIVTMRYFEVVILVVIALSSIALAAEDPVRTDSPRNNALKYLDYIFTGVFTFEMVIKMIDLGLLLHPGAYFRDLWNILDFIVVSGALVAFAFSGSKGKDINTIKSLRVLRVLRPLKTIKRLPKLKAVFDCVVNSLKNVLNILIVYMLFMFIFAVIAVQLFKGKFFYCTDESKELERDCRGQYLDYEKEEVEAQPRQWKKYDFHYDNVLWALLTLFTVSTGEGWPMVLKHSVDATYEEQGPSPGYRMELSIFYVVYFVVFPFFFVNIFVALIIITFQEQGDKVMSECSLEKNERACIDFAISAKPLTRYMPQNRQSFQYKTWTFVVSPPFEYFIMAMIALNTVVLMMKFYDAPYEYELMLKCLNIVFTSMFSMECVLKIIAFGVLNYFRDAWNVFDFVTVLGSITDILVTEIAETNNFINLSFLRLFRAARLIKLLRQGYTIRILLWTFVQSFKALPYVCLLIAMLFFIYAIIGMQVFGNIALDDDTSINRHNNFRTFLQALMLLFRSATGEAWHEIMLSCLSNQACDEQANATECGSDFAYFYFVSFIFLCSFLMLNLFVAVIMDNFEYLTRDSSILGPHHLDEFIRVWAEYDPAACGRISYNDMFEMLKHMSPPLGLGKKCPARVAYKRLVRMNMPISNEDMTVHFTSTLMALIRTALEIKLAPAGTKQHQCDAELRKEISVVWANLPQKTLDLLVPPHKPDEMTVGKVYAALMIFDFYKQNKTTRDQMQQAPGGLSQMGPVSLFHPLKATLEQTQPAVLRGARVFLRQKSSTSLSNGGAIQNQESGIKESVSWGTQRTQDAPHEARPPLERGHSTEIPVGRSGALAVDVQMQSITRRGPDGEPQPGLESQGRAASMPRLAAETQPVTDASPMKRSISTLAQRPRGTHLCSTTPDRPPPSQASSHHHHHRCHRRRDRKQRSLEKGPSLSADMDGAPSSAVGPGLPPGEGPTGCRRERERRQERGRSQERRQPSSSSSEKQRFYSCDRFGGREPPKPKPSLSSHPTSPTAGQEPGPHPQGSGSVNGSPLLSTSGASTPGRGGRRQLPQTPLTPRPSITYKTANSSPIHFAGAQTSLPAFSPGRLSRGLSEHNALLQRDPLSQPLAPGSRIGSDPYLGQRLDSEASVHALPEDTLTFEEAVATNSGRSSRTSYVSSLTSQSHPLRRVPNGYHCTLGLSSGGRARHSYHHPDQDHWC
Chain of recombinant human N-type channels, h α1B (hCav2.2)+β1b+α2δ-1 subunits (Q02641 whole entry partner): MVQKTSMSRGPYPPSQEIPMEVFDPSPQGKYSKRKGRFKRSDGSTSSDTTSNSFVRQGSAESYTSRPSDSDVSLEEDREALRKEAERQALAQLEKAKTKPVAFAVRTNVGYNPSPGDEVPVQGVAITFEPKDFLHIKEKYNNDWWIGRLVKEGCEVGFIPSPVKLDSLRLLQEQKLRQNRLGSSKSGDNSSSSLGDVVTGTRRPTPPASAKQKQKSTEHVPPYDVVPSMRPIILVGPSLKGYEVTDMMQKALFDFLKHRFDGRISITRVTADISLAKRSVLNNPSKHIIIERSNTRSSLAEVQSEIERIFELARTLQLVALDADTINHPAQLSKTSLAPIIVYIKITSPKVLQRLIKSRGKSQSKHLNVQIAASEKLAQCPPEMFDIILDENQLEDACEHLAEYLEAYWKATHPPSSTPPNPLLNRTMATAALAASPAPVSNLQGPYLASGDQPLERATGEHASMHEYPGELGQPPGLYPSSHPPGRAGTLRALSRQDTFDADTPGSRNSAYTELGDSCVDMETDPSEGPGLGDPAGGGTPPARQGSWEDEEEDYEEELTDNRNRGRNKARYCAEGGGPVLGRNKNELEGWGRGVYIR
Chain of recombinant human N-type channels, h α1B (hCav2.2)+β1b+α2δ-1 subunits (P54289 25-956 partner limits assumed): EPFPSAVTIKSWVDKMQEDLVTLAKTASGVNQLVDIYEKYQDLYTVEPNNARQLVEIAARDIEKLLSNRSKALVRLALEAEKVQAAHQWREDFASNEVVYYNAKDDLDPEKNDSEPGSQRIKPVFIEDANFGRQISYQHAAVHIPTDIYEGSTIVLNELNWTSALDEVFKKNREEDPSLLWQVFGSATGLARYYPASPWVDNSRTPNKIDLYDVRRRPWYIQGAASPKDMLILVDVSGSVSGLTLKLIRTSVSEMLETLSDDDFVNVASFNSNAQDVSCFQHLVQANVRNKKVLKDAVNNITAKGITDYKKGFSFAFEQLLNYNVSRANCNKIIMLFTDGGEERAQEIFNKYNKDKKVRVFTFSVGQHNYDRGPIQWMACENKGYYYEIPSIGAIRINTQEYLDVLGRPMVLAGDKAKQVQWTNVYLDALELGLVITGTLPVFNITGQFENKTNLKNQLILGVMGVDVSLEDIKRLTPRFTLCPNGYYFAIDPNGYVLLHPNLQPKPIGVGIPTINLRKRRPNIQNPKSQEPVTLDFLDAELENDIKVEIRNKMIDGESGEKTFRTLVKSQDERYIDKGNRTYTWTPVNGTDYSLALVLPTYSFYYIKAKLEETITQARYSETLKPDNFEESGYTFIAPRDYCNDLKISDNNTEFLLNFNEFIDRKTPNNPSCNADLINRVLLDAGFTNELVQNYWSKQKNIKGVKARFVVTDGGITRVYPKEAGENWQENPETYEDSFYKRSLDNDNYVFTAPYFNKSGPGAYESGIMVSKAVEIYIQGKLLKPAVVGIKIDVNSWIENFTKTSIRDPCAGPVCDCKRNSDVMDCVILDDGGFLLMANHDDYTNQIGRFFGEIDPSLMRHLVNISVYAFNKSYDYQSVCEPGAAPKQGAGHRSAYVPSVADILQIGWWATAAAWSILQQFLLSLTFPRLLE
Chain of recombinant human N-type channels, h α1B (hCav2.2)+β1b+α2δ-1 subunits (P54289 957-1103 partner limits assumed): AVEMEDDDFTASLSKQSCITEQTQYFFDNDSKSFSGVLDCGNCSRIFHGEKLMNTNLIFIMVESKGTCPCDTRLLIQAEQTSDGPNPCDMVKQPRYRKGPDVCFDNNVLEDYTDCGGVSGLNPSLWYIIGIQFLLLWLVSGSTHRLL
Chain of N-type calcium channels (Q00975 whole entry): as the sequence (Q00975 whole entry) above
Chain of N-type calcium channels (Q02641 whole entry partner): as the sequence (Q02641 whole entry partner) above
Chain of N-type calcium channels (P54289 25-956 partner limits assumed): as the sequence (P54289 25-956 partner limits assumed) above
Chain of N-type calcium channels (P54289 957-1103 partner limits assumed): as the sequence (P54289 957-1103 partner limits assumed) above

As to `CNC(=O)CN(CCc1ccc(OCc2cccc(F)c2)c(OC)c1)CC1CCOC1` (centres unmarked) [Example 7, 2-[[2-[4-(3-Fluoro-benzyloxy)-3-methoxy-phenyl]-ethyl]-(tetrahydrofuran-3-ylmethyl)amino]-N-methyl-acetamide hydrochloride], the half-maximal inhibitory concentration (IC50) in experiment [1] was found to be 11 µM.

In experiment [2], `C[C@H](NCc1ccc(OCc2cccc(F)c2)cc1)C(N)=O` [safinamide, (S)-(+)-2-[4-(3-fluoro-benzyloxy)-benzylamino]-propanamide, reference compound] returned an inhibition at 100 µM of 100%. Further, in experiment [3], the “50% Protection” value was “(4.0 mg/kg/iv)”.

As for `CNC(=O)CN(CCc1ccc(OCc2cccc(F)c2)c(OC)c1)CC1CC1` [Example 8, 2-[[2-[4-(3-Fluoro-benzyloxy)-3-methoxy-phenyl]-ethyl]-(cyclopropylmethyl)amino]-N-methyl-acetamide hydrochloride], the IC50 in experiment [4] came to 2.1 µM; in experiment [5], 3.8 µM; in experiment [6], 3.5 µM; in experiment [1], 5.2 µM; in experiment [7], 9.8 µM.

In general, IC50 refers to the concentration that inhibits the measured activity by half. A word on the inhibition: it is the share of the control response that was lost under treatment. The low end stands for a weak effect, the high end for a strong effect.
